# Tests used:
# Jagged1 [1] = assay: Jagged1 mRNA by real time RT-PCR in UMR106 cells; type: cell-based; details: UMR106 cells, PGE2 10^−7 M, at 2 hours, corrected for beta-actin
# Method: UMR 106 cells were serum starved for 24 hours and then treated with a single dose of vehicle (controls) or PGE2 at a concentration of 10^-7 M. RNA was collected from both control and treated samples to assess the fold change in Jagged1 mRNA by real time RT-PCR analysis corrected for by beta-actin. FIG. 1B is a Western blot showing total protein that was collected from both control and treated samples exposed to Jagged1 antibody, C20. Positive control (+ctr) was provided by HS27a cells, a human stromal cell line with high levels of Jagged1 protein, while HS5 cells from a human stromal cell line with minimal Jagged1 levels were used as a negative control. […] UMR106 cells were serum starved for 24 hours. They were pre-treated with H89 for 30 minutes followed by a single dose of PGE2 at 10^-7 M or vehicle. RNA was collected from both control and treated samples to assess the fold change in Jagged1 RNA by real time RT-PCR analysis corrected for by β-actin. […] UMR106 cells were serum starved for 24 hours. […] Total protein was collected from both PGE2 and vehicle treated samples for Western blot analysis with Jagged1 antibody C-20. UMR106 cells were grown in DMEM supplemented with 1.5 g/l sodium bicarbonate, 10% FBS, penicillin (100 U/ml), streptomycin (100 U/ml). After three days of growth the cells were 80% confluent and media was replaced with serum-free media. After 24 hr in serum-free media, PGE2 was added in noted concentrations. UMR 106 cells were treated with the Protein Kinase A (PKA) inhibitors H89 (0.5 hr prior to PGE2 treatment), and myristoylated PKI (0.5 hr prior to PGE2 treatment). […] At the designated times, total RNA and protein were harvested. Total RNA was extracted and analyzed by real time RT-PCR, normalizing for β-actin expression and t=0. Total protein was analyzed by Western blots performed using the […] system (Invitrogen, Carlsbad, Calif.). Blots were probed with Jag1 c-20 antibody (Santa Cruz Biotechnology, Inc., Santa Cruz, Calif.), and the loading control was B-actin.
# Jagged1 [2] = assay: Jagged1 protein by Western blot in UMR106 cells; type: cell-based; details: UMR106 cells after treatment with PGE2, Western blot, antibody C-20
# Method: UMR 106 cells were serum starved for 24 hours and then treated with a single dose of vehicle (controls) or PGE2 at a concentration of 10^-7 M. RNA was collected from both control and treated samples to assess the fold change in Jagged1 mRNA by real time RT-PCR analysis corrected for by beta-actin. FIG. 1B is a Western blot showing total protein that was collected from both control and treated samples exposed to Jagged1 antibody, C20. Positive control (+ctr) was provided by HS27a cells, a human stromal cell line with high levels of Jagged1 protein, while HS5 cells from a human stromal cell line with minimal Jagged1 levels were used as a negative control. FIG. 2A is a graph showing that inhibition of PKA blocks PGE2-dependent increase of Jagged1 in UMR 106 cells. UMR106 cells were serum starved for 24 hours. They were pre-treated with H89 for 30 minutes followed by a single dose of PGE2 at 10^-7 M or vehicle. RNA was collected from both control and treated samples to assess the fold change in Jagged1 RNA by real time RT-PCR analysis corrected for by β-actin. […] UMR106 cells were serum starved for 24 hours. […] Total RNA was extracted and analyzed by real time RT-PCR, normalizing for β-actin expression and t=0. Total protein was analyzed by Western blots performed using the […] system (Invitrogen, Carlsbad, Calif.). […]
# HSC subsets = assay: LSK subset analysis based on Flt3 and Thy1.1 expression; type: in vivo, mice
# Method: FIGS. 12A and 12B are representative plots of flow cytometric strategy of LSK subset from bone marrow of individual vehicle and PGE2-treated mice, numbers in the quadrant represent percentage of LSK.
# To further confirm this targeted PGE2 effect, LSK subset analysis based on Flt3 and Thy1.1 expression was performed. […] (n=4 per treatment group).
# ST-HSC / LT-HSC activity = assay: Colony Forming Unit-Spleen (CFU-S) assay; type: in vivo, mice
# Text: FIG. 13A show CFU-S images of selected spleens after fixation. FIGS. 13B and 13C are graphs showing quantification of colonies per spleen at days 8 (FIG. 13B) and 10 (FIG. 13C) after transplantation.
# ST vs LT-HSC activity can also be quantified by the in vivo clonogenic Colony Forming Unit-Spleen (CFU-S) assay, where day 8 CFU-S is closely associated with ST-HSC, while day 10-12 CFU-S are associated with LT-HSC activity.
# [3] = test system: lethally irradiated recipient mice; assay: Survival of lethally irradiated recipients of suboptimal BMMC from treated donors; type: in vivo
# Text: FIGS. 14A and 14B are graphs showing survival analysis by the method of Kaplan-Meyer in lethally irradiated recipients of suboptimal BMMC (1.5×10^5 donor BMMC (A) and 0.75×10^5 donor BMMC (B)) from vehicle or PGE2-treated donors.
# Moreover, since ST-HSC confer radioprotection, PGE2-dependent ST-HSC expansion would be expected to improve survival of lethally irradiated recipients receiving limiting numbers of BMMC from PGE2 vs vehicle-treated mice. To test this hypothesis, adult C57Bl/6 donor mice were treated with PGE2 or vehicle prior to bone marrow harvest. Recipient mice received myeloablative doses of radiation and suboptimal BMMC numbers (FIGS. 14A and 14B).
smiles,measurement,setting,value
"CCCCC[C@H](O)/C=C/[C@H]1[C@H](O)CC(=O)[C@@H]1C/C=C\CCCC(=O)O [PGE2, Prostaglandin E2]",Jagged1 mRNA increase compared to vehicle,Jagged1 [1],up to 5 fold
same,Jagged1 protein,Jagged1 [2],increased
same,MPP (Flt3+Thy1.1- LSK) quantification from bone marrow,"HSC subsets; n=4, p 0.007 vs vehicle",0.0305 ± 0.002398
same,ST-HSC (Flt3+Thy1.1int LSK) quantification from bone marrow,"HSC subsets; n=4, p 0.0307 vs vehicle",0.02725 ± 0.003568
same,LT-HSC (Flt3−Thy1.1int LSK) quantification from bone marrow,"HSC subsets; n=4, p 0.1069 (NS) vs vehicle",0.01264 ± 0.002233
same,CFU-Sd8,"ST-HSC / LT-HSC activity; day 8, BMMC from treated mice, n=4, p=0.0053","10.5 CFU-S per 60,000 BMMC"
same,CFU-Sd10,"ST-HSC / LT-HSC activity; day 10, BMMC from treated mice, n=6, p=0.4950","12.5 CFU-S per 60,000 BMMC"
same,survival 30 days after transplantation,"[3]; 75,000 donor cells from treated donors, p=0.0173",53%
same,survival 30 days after transplantation,"[3]; 150,000 donor cells from treated donors, p=0.0018",80%
